Experimental data as given in PubChem BioAssay (NCI).
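Values below derive from 48-hour exposures of cells grown in 96-well plates, with endpoints linearly interpolated between the two concentrations bracketing the appropriate inhibition level. GI50 marks 50% less growth. At the TGI there is no net growth.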

How the values were obtained:
Test in all cases: inhibition of tumour cell growth, NCI panel, 48 h
MOLT-4 leukemia = test system: MOLT-4 leukemia
EKVX NSCLC = test system: EKVX NSCLC
HCT-15 colon = test system: HCT-15 colon
SK-MEL-28 melanoma = test system: SK-MEL-28 melanoma
BT-549 breast = test system: BT-549 breast
NCI-H522 lung = test system: NCI-H522 lung
KM12 colon = test system: KM12 colon
HS 578T breast = test system: HS 578T breast
HL-60(TB) leukemia = test system: HL-60(TB) leukemia
HT29 colon = test system: HT29 colon
HOP-92 NSCLC = test system: HOP-92 NSCLC
NCI/ADR-RES ovarian = test system: NCI/ADR-RES ovarian
SF-268 CNS = test system: SF-268 CNS
OVCAR-4 ovarian = test system: OVCAR-4 ovarian
UACC-62 melanoma = test system: UACC-62 melanoma
MALME-3M melanoma = test system: MALME-3M melanoma
RPMI-8226 leukemia = test system: RPMI-8226 leukemia
T-47D breast = test system: T-47D breast
UO-31 renal = test system: UO-31 renal
CAKI-1 renal = test system: CAKI-1 renal
K-562 leukemia = test system: K-562 leukemia
MCF7 breast = test system: MCF7 breast
DU-145 prostate = test system: DU-145 prostate
SK-MEL-2 melanoma = test system: SK-MEL-2 melanoma
786-0 renal = test system: 786-0 renal
HCC-2998 colon = test system: HCC-2998 colon
COLO 205 colon = test system: COLO 205 colon
SK-OV-3 ovarian = test system: SK-OV-3 ovarian
LOX IMVI melanoma = test system: LOX IMVI melanoma
ACHN renal = test system: ACHN renal
UACC-257 melanoma = test system: UACC-257 melanoma
MDA-MB-231 breast = test system: MDA-MB-231 breast
NCI-H23 lung = test system: NCI-H23 lung
SW-620 colon = test system: SW-620 colon
SF-539 CNS = test system: SF-539 CNS
IGROV1 ovarian = test system: IGROV1 ovarian
OVCAR-3 ovarian = test system: OVCAR-3 ovarian
A498 renal = test system: A498 renal
SNB-19 CNS = test system: SNB-19 CNS
PC-3 prostate = test system: PC-3 prostate
M14 melanoma = test system: M14 melanoma
SF-295 CNS = test system: SF-295 CNS
U251 CNS = test system: U251 CNS
OVCAR-5 ovarian = test system: OVCAR-5 ovarian
MDA-MB-435 = test system: MDA-MB-435
TK-10 renal = test system: TK-10 renal
NCI-H226 lung = test system: NCI-H226 lung
HOP-62 NSCLC = test system: HOP-62 NSCLC
SN12C renal = test system: SN12C renal
A549 NSCLC = test system: A549 NSCLC
SK-MEL-5 melanoma = test system: SK-MEL-5 melanoma
HCT-116 colon = test system: HCT-116 colon
OVCAR-8 ovarian = test system: OVCAR-8 ovarian
SNB-75 CNS = test system: SNB-75 CNS
SR leukemia = test system: SR leukemia
NCI-H460 lung = test system: NCI-H460 lung
RXF 393 renal = test system: RXF 393 renal

For `O=c1[nH]c2ccccc2n1C1CCN(CCOc2ccccc2)CC1`, the GI50 (MOLT-4 leukemia) was 48 µM, the TGI (MOLT-4 leukemia) was > 100 µM and the GI50 (EKVX NSCLC) was 7.05 µM. The TGI (EKVX NSCLC) was 58.4 µM, the GI50 (HCT-15 colon) was 20.6 µM and the TGI (HCT-15 colon) was > 100 µM. The GI50 (SK-MEL-28 melanoma) was 47.9 µM, the TGI (SK-MEL-28 melanoma) was > 100 µM and the GI50 (BT-549 breast) was 34.2 µM. The TGI (BT-549 breast) was > 100 µM, the GI50 (NCI-H522 lung) was 56.9 µM and the TGI (NCI-H522 lung) was > 100 µM. The GI50 (KM12 colon) was 40.4 µM, the TGI (KM12 colon) was > 100 µM and the GI50 (HS 578T breast) was 20.8 µM. The TGI (HS 578T breast) was 77.6 µM, the GI50 (HL-60(TB) leukemia) was 12.9 µM and the TGI (HL-60(TB) leukemia) was > 100 µM. The GI50 (HT29 colon) was 35.8 µM, the TGI (HT29 colon) was > 100 µM and the GI50 (HOP-92 NSCLC) was 22.9 µM. The TGI (HOP-92 NSCLC) was > 100 µM, the GI50 (NCI/ADR-RES ovarian) was 11.5 µM and the TGI (NCI/ADR-RES ovarian) was > 100 µM. For the same compound, the GI50 (SF-268 CNS) was 39.1 µM, the TGI (SF-268 CNS) was > 100 µM and the GI50 (OVCAR-4 ovarian) was 5.86 µM. For the same compound, the TGI (OVCAR-4 ovarian) was > 100 µM, the GI50 (UACC-62 melanoma) was 50.5 µM and the TGI (UACC-62 melanoma) was > 100 µM. The GI50 (MALME-3M melanoma) was 51.5 µM, the TGI (MALME-3M melanoma) was > 100 µM and the GI50 (RPMI-8226 leukemia) was 9.28 µM. The TGI (RPMI-8226 leukemia) was > 100 µM, the GI50 (T-47D breast) was 15.7 µM and the TGI (T-47D breast) was > 100 µM. The GI50 (UO-31 renal) was 34.1 µM, the TGI (UO-31 renal) was > 100 µM and the GI50 (CAKI-1 renal) was 14.9 µM. The TGI (CAKI-1 renal) was 52.7 µM, the GI50 (K-562 leukemia) was 6.85 µM and the TGI (K-562 leukemia) was > 100 µM. The GI50 (MCF7 breast) was 26.3 µM, the TGI (MCF7 breast) was > 100 µM and the GI50 (DU-145 prostate) was 15.8 µM. For the same compound, the TGI (DU-145 prostate) was > 100 µM, the GI50 (SK-MEL-2 melanoma) was 32.8 µM and the TGI (SK-MEL-2 melanoma) was > 100 µM. The GI50 (786-0 renal) was 43.9 µM, the TGI (786-0 renal) was > 100 µM and the GI50 (HCC-2998 colon) was 26.9 µM. For the same compound, the TGI (HCC-2998 colon) was > 100 µM, the GI50 (COLO 205 colon) was 14.5 µM and the TGI (COLO 205 colon) was 45.8 µM. The GI50 (SK-OV-3 ovarian) was 42.9 µM, the TGI (SK-OV-3 ovarian) was > 100 µM and the GI50 (LOX IMVI melanoma) was 15.5 µM. For the same compound, the TGI (LOX IMVI melanoma) was > 100 µM, the GI50 (ACHN renal) was 40.4 µM and the TGI (ACHN renal) was > 100 µM. The GI50 (UACC-257 melanoma) was 70.7 µM, the TGI (UACC-257 melanoma) was > 100 µM and the GI50 (MDA-MB-231 breast) was 27 µM. For the same compound, the TGI (MDA-MB-231 breast) was > 100 µM, the GI50 (NCI-H23 lung) was 30.5 µM and the TGI (NCI-H23 lung) was > 100 µM. For the same compound, the GI50 (SW-620 colon) was 50.1 µM, the TGI (SW-620 colon) was > 100 µM and the GI50 (SF-539 CNS) was 44.9 µM. The TGI (SF-539 CNS) was > 100 µM, the GI50 (IGROV1 ovarian) was 91.7 µM and the TGI (IGROV1 ovarian) was > 100 µM. The GI50 (OVCAR-3 ovarian) was 14 µM, the TGI (OVCAR-3 ovarian) was > 100 µM and the GI50 (A498 renal) was 17.1 µM. For the same compound, the TGI (A498 renal) was 99.6 µM, the GI50 (SNB-19 CNS) was 47.8 µM and the TGI (SNB-19 CNS) was > 100 µM. For the same compound, the GI50 (PC-3 prostate) was 10.7 µM, the TGI (PC-3 prostate) was > 100 µM and the GI50 (M14 melanoma) was 25.4 µM. For the same compound, the TGI (M14 melanoma) was > 100 µM, the GI50 (SF-295 CNS) was 2.87 µM and the TGI (SF-295 CNS) was 19.2 µM. The GI50 (U251 CNS) was 20.5 µM, the TGI (U251 CNS) was > 100 µM and the GI50 (OVCAR-5 ovarian) was 47.8 µM. For the same compound, the TGI (OVCAR-5 ovarian) was > 100 µM, the GI50 (MDA-MB-435) was 6.75 µM and the TGI (MDA-MB-435) was 72.3 µM. For the same compound, the GI50 (TK-10 renal) was 86.2 µM, the TGI (TK-10 renal) was > 100 µM and the GI50 (NCI-H226 lung) was 30.1 µM. For the same compound, the TGI (NCI-H226 lung) was > 100 µM, the GI50 (HOP-62 NSCLC) was 50.3 µM and the TGI (HOP-62 NSCLC) was > 100 µM. The GI50 (SN12C renal) was 34.3 µM, the TGI (SN12C renal) was > 100 µM and the GI50 (A549 NSCLC) was 58.3 µM. The TGI (A549 NSCLC) was > 100 µM, the GI50 (SK-MEL-5 melanoma) was 16 µM and the TGI (SK-MEL-5 melanoma) was 42 µM. The GI50 (HCT-116 colon) was 10.7 µM, the TGI (HCT-116 colon) was > 100 µM and the GI50 (OVCAR-8 ovarian) was 13.3 µM. The TGI (OVCAR-8 ovarian) was > 100 µM, the GI50 (SNB-75 CNS) was 23.7 µM and the TGI (SNB-75 CNS) was > 100 µM. The GI50 (SR leukemia) was 44 µM, the TGI (SR leukemia) was > 100 µM and the GI50 (NCI-H460 lung) was 18.7 µM. The TGI (NCI-H460 lung) was > 100 µM, the GI50 (RXF 393 renal) was 45 µM and the TGI (RXF 393 renal) was > 100 µM.
